Biological target: Trace amine-associated receptor 1 (Mus musculus, UniProt Q923Y8)
Experiment: Radioligand Binding Assay
Method: Nonspecific binding was defined as the amount of [H]-(S)-4-[(ethyl-phenyl-amino)-methyl]-4,5-dihydro-oxazol-2-ylamine bound in the presence of 10 μM unlabeled ligand. All compounds were tested at a broad range of concentrations ([…]) in duplicates.

Chain of Trace amine-associated receptor 1 (Q923Y8 whole entry): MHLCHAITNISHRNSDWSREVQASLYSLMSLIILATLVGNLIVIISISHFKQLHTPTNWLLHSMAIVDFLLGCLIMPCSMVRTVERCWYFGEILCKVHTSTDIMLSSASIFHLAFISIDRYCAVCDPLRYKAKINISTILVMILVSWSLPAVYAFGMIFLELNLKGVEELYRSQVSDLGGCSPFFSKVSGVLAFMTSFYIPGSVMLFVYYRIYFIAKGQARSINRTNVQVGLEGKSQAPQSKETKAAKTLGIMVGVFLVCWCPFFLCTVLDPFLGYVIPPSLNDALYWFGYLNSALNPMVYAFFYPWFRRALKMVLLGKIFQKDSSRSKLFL

Row | SMILES | Ki
1 | Brc1ccc2c(c1)CCN1CCNC[C@@H]21 [US9828374, Example 2] | 180 nM
2 | O=C(Nc1ccc2c(c1)CCN1CCNC[C@@H]21)c1cnc(C(F)(F)F)nc1 [US9828374, Example 4] | 189 nM
3 | Cc1cc(Nc2ccc3c(c2)CCN2CCNC[C@@H]32)nc(OCC(F)(F)F)n1 [US9828374, Example 26] | 41 nM
4 | Fc1c(Nc2cc(Cl)nc(C(F)(F)F)n2)ccc2c1CCN1CCNC[C@@H]21 [US9828374, Example 34] | 79.5 nM

Reference: BindingDB's records for patent US9828374 (Hoffmann-La Roche, 2017)
